Assay results as given in PMC6934184, “Selective DNA-PKcs inhibition extends the therapeutic index of localized radiotherapy and chemotherapy” (The Journal of Clinical Investigation, 2019).

Target: T1, PDGFRA D842V (Homo sapiens, UniProt P16234, D842V)
T1 construct: purchased Thermo Fisher Scientific (Life Technologies) SelectScreen
Test: SelectScreen Z'LYTE
Format: biochemical
Outline: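 Percent values come from Thermo SelectScreen profiling of NU5455, combining activity and binding assays. CSF1R was run in Z'LYTE format at Km app ATP, and CAMK1 in Adapta format with ATP listed at 10.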

T1 sequence (P16234 24-1089 D842V): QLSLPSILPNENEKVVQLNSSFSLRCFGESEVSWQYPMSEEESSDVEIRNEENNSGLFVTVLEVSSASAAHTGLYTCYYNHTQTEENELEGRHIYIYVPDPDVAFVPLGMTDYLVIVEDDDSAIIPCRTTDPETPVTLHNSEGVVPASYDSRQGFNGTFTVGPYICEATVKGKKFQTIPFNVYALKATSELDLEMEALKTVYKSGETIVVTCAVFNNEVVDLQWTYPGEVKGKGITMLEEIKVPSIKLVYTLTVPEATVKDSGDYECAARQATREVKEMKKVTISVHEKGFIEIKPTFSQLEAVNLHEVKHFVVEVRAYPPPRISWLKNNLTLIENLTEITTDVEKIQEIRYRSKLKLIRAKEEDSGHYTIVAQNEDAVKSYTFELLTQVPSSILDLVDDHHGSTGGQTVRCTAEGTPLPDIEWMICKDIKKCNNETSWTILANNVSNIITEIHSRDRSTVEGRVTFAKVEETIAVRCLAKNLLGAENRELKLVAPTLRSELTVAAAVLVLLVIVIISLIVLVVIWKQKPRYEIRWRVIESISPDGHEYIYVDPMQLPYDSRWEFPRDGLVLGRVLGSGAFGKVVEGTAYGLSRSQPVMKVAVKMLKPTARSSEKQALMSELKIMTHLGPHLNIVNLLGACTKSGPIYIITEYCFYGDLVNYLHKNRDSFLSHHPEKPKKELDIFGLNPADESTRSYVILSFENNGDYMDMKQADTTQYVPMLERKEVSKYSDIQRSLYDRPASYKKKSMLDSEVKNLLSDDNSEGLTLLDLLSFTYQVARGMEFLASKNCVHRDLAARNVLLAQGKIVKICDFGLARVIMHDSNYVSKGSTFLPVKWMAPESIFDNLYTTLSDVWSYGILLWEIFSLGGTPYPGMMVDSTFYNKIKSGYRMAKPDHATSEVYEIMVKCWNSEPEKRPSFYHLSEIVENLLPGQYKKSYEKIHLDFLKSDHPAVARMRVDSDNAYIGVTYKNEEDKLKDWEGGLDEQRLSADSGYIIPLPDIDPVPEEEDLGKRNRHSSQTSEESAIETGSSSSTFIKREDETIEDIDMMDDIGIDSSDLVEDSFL

CN(C(=O)CN1CCOCC1)c1ccc2sc3c(-c4cccc5c(=O)cc(N6CC7CCC(C6)O7)oc45)cccc3c2c1 [NU5455]
inhibition at 1 µM: -5%
